From patent publication US20230312587A1, “PTERIDINONE COMPOUNDS AND USES THEREOF” (Vertex Pharmaceutical Incorporated, priority 2018, published 2023)

These compounds were tested on β-catenin-TCF-mediated reporter transcription activity in Colo 205 cells (assay: Colo 205 reporter assay (TCF/LEF luciferase)). Details: Homo sapiens, COLO 205, 5 h, Colo 205 TCF/LEF luciferase reporter, five hours after addition of compound; read-out: TCF reporter Colo205 IC50.
Type: cell-based
Procedure, shortened: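 Luciferase signal from a TCF/LEF-driven reporter, stably integrated in Colo 205 colon cancer cells, was measured 5 h after compound addition.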

| SMILES | IC50 |
| --- | --- |
| Cc1nc(N[C@H]2C[C@H](Oc3ccc(OC(F)(F)F)cc3)C2)nc2c1NC(=O)[C@H](C)N2C [Compound 326, (7S)-4,7,8-trimethyl-2-((trans-3-(4-(trifluoromethoxy)phenoxy)-cyclobutyl)amino)-7,8-dihydropteridin-6(5H)-one] | < 300 nM |
| Cc1nc(N[C@H]2C[C@H](Oc3ccc(OC(F)F)nc3)C2)nc2c1NC(=O)[C@H](C)N2C [Compound 361, (7S)-2-((trans-3-((6-(difluoromethoxy)pyridin-3-yl)oxy)cyclobutyl)amino)-4,7,8-trimethyl-7,8-dihydropteridin-6(5H)-one] | < 300 nM |
| Cc1nc(N[C@H]2C[C@H](Oc3ccc(C(F)(F)F)nc3)C2)nc2c1N(C)C(=O)[C@H](C)N2C [Compound 323, (7S)-4,5,7,8-tetramethyl-2-((trans-3-((6-(trifluoromethyl)pyridin-3-yl)oxy)cyclobutyl)amino)-7,8-dihydropteridin-6(5H)-one] | < 300 nM |
| Cc1nc(N[C@H]2C[C@H](Oc3ccc(F)c(F)c3F)C2)nc2c1N(C)C(=O)[C@H](C)N2C [Compound 293, (7S)-4,5,7,8-tetramethyl-2-((trans-3-(2,3,4-trifluorophenoxy)cyclobutyl)-amino)-7,8-dihydropteridin-6(5H)-one] | < 300 nM |
| CCN1C(=O)[C@H](CCO)N(CC)c2nc(NCc3cnn(Cc4cccc(C(F)(F)F)c4)c3)ncc21 [Compound 49, (7S)-5,8-diethyl-7-(2-hydroxyethyl)-2-(((1-(3-(trifluoromethyl)benzyl)-1H-pyrazol-4-yl)methyl)amino)-7,8-dihydropteridin-6(5H)-one] | < 300 nM |
| Cc1nc(NCc2cnn([C@H]3CCN(c4ccc(F)cc4)C3)c2)nc2c1NC(=O)[C@H](C)N2C [Compound 171, (7S)-2-(((1-((S)-1-(4-fluorophenyl)pyrrolidin-3-yl)-1H-pyrazol-4-yl)methyl)amino)-4,7,8-trimethyl-7,8-dihydropteridin-6(5H)-one] | < 300 nM |
| Cc1nc(N[C@H]2C[C@@H](Cn3nccc3C(F)(F)F)C2)nc2c1NC(=O)[C@H](C(C)C)N2C [Compound 512, (S)-7-isopropyl-4,8-dimethyl-2-((cis-3-((5-(trifluoromethyl)-1H-pyrazol-1-yl)methyl)cyclobutyl)amino)-7,8-dihydropteridin-6(5H)-one] | < 300 nM |
| Cc1nc(NCc2cnn(CC(=O)c3ccc(F)cc3)c2)nc2c1NC(=O)[C@H](C)N2C [Compound 91, (7S)-2-(((1-(2-(4-fluorophenyl)-2-oxoethyl)-1H-pyrazol-4-yl)methyl)amino)-4,7,8-trimethyl-7,8-dihydropteridin-6(5H)-one] | < 300 nM |
| Cc1nc(NCc2cnn(Cc3ccc(C(F)(F)F)nc3)c2)nc2c1N(C)C(=O)[C@H](C)N2C [Compound 177, (7S)-4,5,7,8-tetramethyl-2-(((1-((6-(trifluoromethyl)pyridin-3-yl)methyl)-1H-pyrazol-4-yl)methyl)amino)-7,8-dihydropteridin-6(5H)-one] | < 300 nM |
| CNc1ccc(Cn2cc(CNc3nc(C)c4c(n3)N(C)[C@@H](C)C(=O)N4)cn2)cn1 [Compound 10, (7S)-4,7,8-trimethyl-2-(((1-((6-(methylamino)pyridin-3-yl)methyl)-1H-pyrazol-4-yl)methyl)amino)-7,8-dihydropteridin-6(5H)-one] | ≥ 5000 nM |
| Cc1nc(N[C@H]2C[C@@H](Nc3ccnc(C(F)(F)F)n3)C2)nc2c1NC(=O)[C@H](C(C)C)N2C [Compound 539, (S)-7-isopropyl-4,8-dimethyl-2-((cis-3-((2-(trifluoromethyl)pyrimidin-4-yl)amino)cyclobutyl)amino)-7,8-dihydropteridin-6(5H)-one] | 300 to 1000 nM |
| Cc1nc(NCc2cnn(Cc3ccc(C(F)(F)F)nc3)c2)nc2c1NC(=O)C1(CC1)N2C [Compound 239, 4′,8′-dimethyl-2′-(((1-((6-(trifluoromethyl)pyridin-3-yl)methyl)-1H-pyrazol-4-yl)methyl)amino)-5′,8′-dihydro-6′H-spiro[cyclopropane-1,7′-pteridin]-6′-one] | < 300 nM |
| CC[C@H]1C(=O)Nc2c(C)nc(NCc3cnn(Cc4ccc(C(F)(F)F)o4)c3)nc2N1C [Compound 516, (S)-7-ethyl-4,8-dimethyl-2-(((1-((5-(trifluoromethyl)furan-2-yl)methyl)-1H-pyrazol-4-yl)methyl)amino)-7,8-dihydropteridin-6(5H)-one] | < 300 nM |
| COc1cc(F)ccc1O[C@H]1C[C@H](Nc2nc(C)c3c(n2)N(C)[C@@H](C)C(=O)N3C)C1 [Compound 345, (7S)-2-((trans-3-(4-fluoro-2-methoxyphenoxy)cyclobutyl)amino)-4,5,7,8-tetramethyl-7,8-dihydropteridin-6(5H)-one] | 300 to 1000 nM |
| Cc1nc(NCc2cnn(Cc3ccnc(C#N)c3)c2)nc2c1NC(=O)[C@H](C)N2C [Compound 204, (7S)-4-((4-(((4,7,8-trimethyl-6-oxo-5,6,7,8-tetrahydropteridin-2-yl)amino)methyl)-1H-pyrazol-1-yl)methyl)picolinonitrile] | ≥ 5000 nM |
| Cc1nc(NCc2cnn(Cc3cc(F)c(F)c(F)c3)c2)nc2c1NC(=O)[C@H](C1CC1)N2C [Compound 456, (S)-7-cyclopropyl-4,8-dimethyl-2-(((1-(3,4,5-trifluorobenzyl)-1H-pyrazol-4-yl)methyl)amino)-7,8-dihydropteridin-6(5H)-one] | < 300 nM |
| COc1ccc(O[C@H]2C[C@H](Nc3nc(C)c4c(n3)N(C)[C@@H](C)C(=O)N4)C2)cc1OC [Compound 352, (7S)-2-((trans-3-(3,4-dimethoxyphenoxy)cyclobutyl)amino)-4,7,8-trimethyl-7,8-dihydropteridin-6(5H)-one] | 1000 to 5000 nM |
| COc1cc(Cn2cc(CNc3nc(C)c4c(n3)N(C)[C@@H](C)C(=O)N4)cn2)cnc1C(F)(F)F [Compound 213, (7S)-2-(((1-((5-methoxy-6-(trifluoromethyl)pyridin-3-yl)methyl)-1H-pyrazol-4-yl)methyl)amino)-4,7,8-trimethyl-7,8-dihydropteridin-6(5H)-one] | < 300 nM |
| Cc1nc(N[C@H]2C[C@H](Oc3cc(F)c(F)cc3F)C2)nc2c1N(C)C(=O)[C@H](C)N2C [Compound 294, (7S)-4,5,7,8-tetramethyl-2-((trans-3-(2,4,5-trifluorophenoxy)-cyclobutyl)amino)-7,8-dihydropteridin-6(5H)-one] | < 300 nM |
| Cc1nc(N[C@H]2C[C@H](Oc3ccc(F)cc3)C2)nc2c1NC(=O)[C@H](C)N2C [Compound 242, (7S)-2-((trans 3-(4-fluorophenoxy)cyclobutyl)amino)-4,7,8-trimethyl-7,8-dihydropteridin-6(5H)-one] | < 300 nM |

Now from value to compound:

| IC50 | SMILES |
| --- | --- |
| < 300 nM | CO[C@H](C)[C@H]1C(=O)Nc2c(C)nc(N[C@H]3C[C@@H](CNc4cnc(C(F)(F)F)cn4)C3)nc2N1C [Compound 712, (S)-7-((R)—1-methoxyethyl)-4,8-dimethyl-2-((cis-3-(((5-(trifluoromethyl)pyrazin-2-yl)amino)methyl)cyclobutyl)amino)-7,8-dihydropteridin-6(5H)-one] |
| < 300 nM | Cc1nc(N[C@H]2C[C@@H](COc3cnn(C)c3C(F)(F)F)C2)nc2c1NC(=O)[C@H](C(C)C)N2C [Compound 575, (S)-7-isopropyl-4,8-dimethyl-2-((cis-3-(((1-methyl-5-(trifluoromethyl)-1H-pyrazol-4-yl)oxy)methyl)cyclobutyl)amino)-7,8-dihydropteridin-6(5H)-one] |
| < 300 nM | CO[C@H](C)[C@H]1C(=O)Nc2c(C)nc(NCc3cnn(Cc4cc(F)c(F)c(F)c4)c3)nc2N1C [Compound 659, (S)-7-((R)-1-methoxyethyl)-4,8-dimethyl-2-(((1-(3,4,5-trifluorobenzyl)-1H-pyrazol-4-yl)methyl)amino)-7,8-dihydropteridin-6(5H)-one] |
| < 300 nM | Cc1nc(NC2CN(C(=O)c3ccc(OC(F)(F)F)nc3)C2)nc2c1NC(=O)[C@H](C(C)C)N2C [Compound 607, (S)-7-isopropyl-4,8-dimethyl-2-((1-(6-(trifluoromethoxy)nicotinoyl)azetidin-3-yl)amino)-7,8-dihydropteridin-6(5H)-one] |
| < 300 nM | Cc1nc(N[C@H]2C[C@@H](COc3cnc(C#N)c(F)c3)C2)nc2c1NC(=O)[C@H](C(C)C)N2C [Compound 694, 3-fluoro-5-((cis-3-(((S)-7-isopropyl-4,8-dimethyl-6-oxo-5,6,7,8-tetrahydropteridin-2-yl)amino)cyclobutyl)methoxy)picolinonitrile] |
| < 300 nM | Cc1nc(NC2CN(C(=O)c3cccc(C(F)(F)F)c3)C2)nc2c1NC(=O)[C@H](C(C)C)N2C [Compound 635, (S)-7-isopropyl-4,8-dimethyl-2-((1-(3-(trifluoromethyl)benzoyl)azetidin-3-yl)amino)-7,8-dihydropteridin-6(5H)-one] |
| < 300 nM | CO[C@H](C)[C@H]1C(=O)Nc2c(C)nc(N[C@H]3C[C@@H](Cn4ccc(C(F)(F)F)n4)C3)nc2N1C [Compound 691, (S)-7-((R)-1-methoxyethyl)-4,8-dimethyl-2-((cis-3-((3-(trifluoromethyl)-1H-pyrazol-1-yl)methyl)cyclobutyl)amino)-7,8-dihydropteridin-6(5H)-one] |
| ≥ 5000 nM | Cc1nc(NC2CN(C(=O)C3(C)CCCO3)C2)nc2c1NC(=O)[C@H](C(C)C)N2C (stereo partly drawn) [Compound 638, (7S)-7-isopropyl-4,8-dimethyl-2-((1-(2-methyltetrahydrofuran-2-carbonyl)azetidin-3-yl)amino)-7,8-dihydropteridin-6(5H)-one] |

Same assay, conditions: Homo sapiens, COLO 205, 5 h, R-isomer at C2 (corresponding to C2 S-isomer); Colo 205 TCF/LEF luciferase reporter, 5 h; read-out: TCF reporter Colo205 IC50

| IC50 | SMILES |
| --- | --- |
| < 300 nM | CCN1C(=O)[C@@H](C)N(CC)c2nc(NCc3cnn(Cc4ccc(F)cc4)c3)ncc21 [Compound I-985] |
| < 300 nM | CC[C@@H]1C(=O)N(CC)c2cnc(NCc3cnn(Cc4ccc(F)cc4)c3)nc2N1C [Compound I-987] |
| < 300 nM | Cc1nc(NCc2cnn(Cc3cc(F)c(F)c(F)c3)c2)nc2c1N(C)C(=O)[C@@H](C)N2C [Compound I-1229] |
